Laboratory results from patent US20170312681A1, “PROCESS AND APPARATUS FOR SEPARATING ENTRAINED AMINES FROM A GAS STREAM” (Carbonoro B.V., priority 2014, published 2017).

Experiment: amine content of the aqueous phase after heat-induced phase separation of an aqueous MCA/DMCA mixture
Conditions: 3 M MCA:DMCA 1:3 wt./wt. in water
Protocol: The phases were separated and the aqueous phase was analysed for determining the amine content.

With CNC1CCCCC1 [MCA, N-methylcyclohexylamine] the “MCA in aqueous phase” value (heated 24 h at 40 ° C.) was 6940 mg/L, the “MCA in aqueous phase” value (heated 24 h at 50 ° C.) was 5630 mg/L and the “MCA in aqueous phase” value (heated 24 h at 60 ° C.) was 5090 mg/L. For the same compound, the “MCA in aqueous phase” value (heated 24 h at 70 ° C.) was 4520 mg/L.
